ChEMBL document CHEMBL1143306, “3-amido-4-anilinoquinolines as CSF-1R kinase inhibitors 2: Optimization of the PK profile” (Bioorg Med Chem Lett, 2009)
Values after ≈ are worked out from the molar mass of the structure shown.

System: not listed separately
Assay: Bioavailability in rat at 3 mg/kg, iv and 10 mg/kg, po
Format: ADME, organism-based
Settings: in vivo

SMILES	bioavailability [%]
CCOc1cc2ncc(C(N)=O)c(Nc3ccc(F)cc3F)c2cc1N1CCN(C2CC2)CC1	34
CCOc1cc2ncc(C(N)=O)c(Nc3cccc(Cl)c3Cl)c2cc1N1CCN(C(=O)CO)CC1	6
COc1cc2ncc(C(N)=O)c(Nc3ccc(F)cc3F)c2cc1OC	100

Further lines, results first:

bioavailability [%]	SMILES
46	CCOc1cc2ncc(C(N)=O)c(Nc3ccc(C)cc3F)c2cc1N1CCN(C)CC1
25	CCOc1cc2ncc(C(N)=O)c(Nc3ccc(F)cc3F)c2cc1N1CCOCC1
46	CCOc1cc2ncc(C(N)=O)c(Nc3ccc(F)cc3F)c2cc1N1CCN(CC)CC1

System: not listed separately
Assay: Plasma protein binding assessed as percentage unbound
Settings: not given

SMILES	fraction unbound
CCOc1cc2ncc(C(N)=O)c(Nc3cccc(Cl)c3Cl)c2cc1N1CCN(CCO)CC1	0.048
CCOc1cc2ncc(C(N)=O)c(Nc3ccc(F)cc3F)c2cc1N1CCCN(C2CC2)CC1	0.022
CCOc1cc2ncc(C(N)=O)c(Nc3cccc(Cl)c3Cl)c2cc1N1CCN(CCOC)CC1	0.017
CC(C)Oc1cc2ncc(C(N)=O)c(Nc3ccc(Cl)c(Cl)c3)c2cc1N1CCN(C)CC1	0.01
COCCOc1cc2ncc(C(N)=O)c(Nc3cccc(Cl)c3F)c2cc1N1CCN(C)CC1	0.39
CCOc1cc2ncc(C(N)=O)c(Nc3cccc(Cl)c3Cl)c2cc1N1CCN(C(=O)CO)CC1	0.16
COc1cc2ncc(C(N)=O)c(Nc3ccc(Cl)c(Cl)c3)c2cc1N1CCN(C)CC1	0.036

More lines, now with the values ahead:

fraction unbound	SMILES
0.049	CCOc1cc2ncc(C(N)=O)c(Nc3cccc(Cl)c3Cl)c2cc1N1CCCN(C(C)C)CC1
0.014	CC(C)Oc1cc2ncc(C(N)=O)c(Nc3cccc(Cl)c3Cl)c2cc1N1CCN(C)CC1
0.089	CCOc1cc2ncc(C(N)=O)c(Nc3ccc(F)cc3F)c2cc1N1CCC(O)CC1
0.049	CC(C)Oc1cc2ncc(C(N)=O)c(Nc3cccc(Cl)c3F)c2cc1N1CCN(C)CC1
0.084	CCOc1cc2ncc(C(N)=O)c(Nc3ccc(F)cc3F)c2cc1N1CCOCC1
0.046	CCOc1cc2ncc(C(N)=O)c(Nc3ccc(F)cc3F)c2cc1N1CCN(CC)CC1

System: not listed separately
Assay: Clearance in rat at 3 mg/kg, iv and 10 mg/kg, po
Format: ADME, organism-based
Settings: in vivo

SMILES	clearance [mL/min/kg]
CCOc1cc2ncc(C(N)=O)c(Nc3ccc(F)cc3F)c2cc1N1CCN(C2CC2)CC1	21
CCOc1cc2ncc(C(N)=O)c(Nc3cccc(Cl)c3Cl)c2cc1N1CCN(C(=O)CO)CC1	72
COc1cc2ncc(C(N)=O)c(Nc3ccc(F)cc3F)c2cc1OC	23
COc1cc2ncc(C(N)=O)c(Nc3ccc(Cl)c(Cl)c3)c2cc1N1CCN(C)CC1	50

More lines, now with the values ahead:

clearance [mL/min/kg]	SMILES
10	CCOc1cc2ncc(C(N)=O)c(Nc3ccc(C)cc3F)c2cc1N1CCN(C)CC1
36	CCOc1cc2ncc(C(N)=O)c(Nc3ccc(F)cc3F)c2cc1N1CCOCC1
19	CCOc1cc2ncc(C(N)=O)c(Nc3ccc(F)cc3F)c2cc1N1CCN(CC)CC1

System: Mus musculus
Assay: Inhibition of phosphorylated CSF1R level in 3T3/CSF1R mutant cells xenografted nude mouse at 25 mg/kg, po after 2 hrs by ELISA
Format: functional
Settings: not given

SMILES	inhibition in vivo at 25 mg/kg [%]
CCOc1cc2ncc(C(N)=O)c(Nc3ccc(F)cc3F)c2cc1N1CCN(C(C)C)CC1	70
CCOc1cc2ncc(C(N)=O)c(Nc3ccc(F)cc3F)c2cc1N1CCN(C2CC2)CC1	70
CCOc1cc2ncc(C(N)=O)c(Nc3cccc(Cl)c3Cl)c2cc1N1CCCN(C(C)C)CC1	90
CC(C)Oc1cc2ncc(C(N)=O)c(Nc3cccc(Cl)c3Cl)c2cc1N1CCN(C)CC1	70
COCCOc1cc2ncc(C(N)=O)c(Nc3cccc(Cl)c3F)c2cc1N1CCN(C)CC1	80

System: not listed separately
Assay: Volume of distribution at steady state in rat at 3 mg/kg, iv and 10 mg/kg, po
Format: ADME, organism-based
Settings: in vivo, read-out: Vdss

SMILES	Vd [L/kg]
CCOc1cc2ncc(C(N)=O)c(Nc3ccc(F)cc3F)c2cc1N1CCN(C2CC2)CC1	0.6
CCOc1cc2ncc(C(N)=O)c(Nc3cccc(Cl)c3Cl)c2cc1N1CCN(C(=O)CO)CC1	2.2
COc1cc2ncc(C(N)=O)c(Nc3ccc(F)cc3F)c2cc1OC	0.9
COc1cc2ncc(C(N)=O)c(Nc3ccc(Cl)c(Cl)c3)c2cc1N1CCN(C)CC1	3.8

Continued, values first:

Vd [L/kg]	SMILES
1.8	CCOc1cc2ncc(C(N)=O)c(Nc3ccc(C)cc3F)c2cc1N1CCN(C)CC1
1.1	CCOc1cc2ncc(C(N)=O)c(Nc3ccc(F)cc3F)c2cc1N1CCOCC1
3.6	CCOc1cc2ncc(C(N)=O)c(Nc3ccc(F)cc3F)c2cc1N1CCN(CC)CC1

System: not listed separately
Assay: Half life in rat at 3 mg/kg, iv and 10 mg/kg, po
Format: ADME, organism-based
Settings: in vivo

SMILES	half-life [min]
CCOc1cc2ncc(C(N)=O)c(Nc3ccc(F)cc3F)c2cc1N1CCN(C2CC2)CC1	54
CCOc1cc2ncc(C(N)=O)c(Nc3cccc(Cl)c3Cl)c2cc1N1CCN(C(=O)CO)CC1	39.6
COc1cc2ncc(C(N)=O)c(Nc3ccc(F)cc3F)c2cc1OC	36
COc1cc2ncc(C(N)=O)c(Nc3ccc(Cl)c(Cl)c3)c2cc1N1CCN(C)CC1	72

More lines, now with the values ahead:

half-life [min]	SMILES
138	CCOc1cc2ncc(C(N)=O)c(Nc3ccc(C)cc3F)c2cc1N1CCN(C)CC1
36	CCOc1cc2ncc(C(N)=O)c(Nc3ccc(F)cc3F)c2cc1N1CCOCC1
138	CCOc1cc2ncc(C(N)=O)c(Nc3ccc(F)cc3F)c2cc1N1CCN(CC)CC1

System: NIH3T3
Assay: Antiproliferative activity against mouse 3T3 cells expressing human CSF1R after 72 hrs by Celltiter assay
Format: functional
Settings: not given

SMILES	Activity [µM]
CCOc1cc2ncc(C(N)=O)c(Nc3cccc(Cl)c3Cl)c2cc1N1CCN(CCO)CC1	0.03
CCOc1cc2ncc(C(N)=O)c(Nc3ccc(F)cc3F)c2cc1N1CCN(C(C)C)CC1	0.17
CCOc1cc2ncc(C(N)=O)c(Nc3ccc(F)cc3F)c2cc1N1CCN(C2CC2)CC1	0.66
COc1cc2c(Nc3cccc(Cl)c3Cl)c(C(N)=O)cnc2cc1N1CCN(C)CC1	0.17
CCOc1cc2ncc(C(N)=O)c(Nc3cccc(Cl)c3Cl)c2cc1N1CCCN(C(C)C)CC1	0.02
CCOc1cc2ncc(C(N)=O)c(Nc3ccc(F)cc3F)c2cc1N1CCCN(C2CC2)CC1	0.27
CCOc1cc2ncc(C(N)=O)c(Nc3cccc(Cl)c3Cl)c2cc1N1CCN(CCOC)CC1	0.03
CC(C)Oc1cc2ncc(C(N)=O)c(Nc3ccc(Cl)c(Cl)c3)c2cc1N1CCN(C)CC1	0.12
CC(C)Oc1cc2ncc(C(N)=O)c(Nc3cccc(Cl)c3Cl)c2cc1N1CCN(C)CC1	0.05
COCCOc1cc2ncc(C(N)=O)c(Nc3cccc(Cl)c3F)c2cc1N1CCN(C)CC1	0.1
CCOc1cc2ncc(C(N)=O)c(Nc3cccc(Cl)c3Cl)c2cc1N1CCN(C(=O)CO)CC1	0.09
COc1cc2ncc(C(N)=O)c(Nc3ccc(F)cc3F)c2cc1OC	0.4
CC(C)Oc1cc2ncc(C(N)=O)c(Nc3cccc(Cl)c3F)c2cc1N1CCN(C)CC1	0.21
CCOc1cc2ncc(C(N)=O)c(Nc3ccc(F)cc3F)c2cc1N1CCOCC1	0.48
COc1cc2ncc(C(N)=O)c(Nc3ccc(Cl)c(Cl)c3)c2cc1N1CCN(C)CC1	0.38
CCOc1cc2ncc(C(N)=O)c(Nc3ccc(F)cc3F)c2cc1N1CCN(CC)CC1	0.17

System: not listed separately
Assay: Aqueous solubility of the compound
Format: physicochemical
Settings: buffer

SMILES	solubility [µM]
CCOc1cc2ncc(C(N)=O)c(Nc3cccc(Cl)c3Cl)c2cc1N1CCN(CCO)CC1	67 (≈ 33.8 µg/mL)
CCOc1cc2ncc(C(N)=O)c(Nc3ccc(F)cc3F)c2cc1N1CCN(C2CC2)CC1	150 (≈ 70.1 µg/mL)
COc1cc2c(Nc3cccc(Cl)c3Cl)c(C(N)=O)cnc2cc1N1CCN(C)CC1	220 (≈ 101 µg/mL)
CCOc1cc2ncc(C(N)=O)c(Nc3ccc(F)cc3F)c2cc1N1CCCN(C2CC2)CC1	100 (≈ 48.2 µg/mL)
CCOc1cc2ncc(C(N)=O)c(Nc3cccc(Cl)c3Cl)c2cc1N1CCN(CCOC)CC1	13 (≈ 6.74 µg/mL)
CC(C)Oc1cc2ncc(C(N)=O)c(Nc3ccc(Cl)c(Cl)c3)c2cc1N1CCN(C)CC1	250 (≈ 122 µg/mL)
COCCOc1cc2ncc(C(N)=O)c(Nc3cccc(Cl)c3F)c2cc1N1CCN(C)CC1	910 (≈ 444 µg/mL)
CCOc1cc2ncc(C(N)=O)c(Nc3cccc(Cl)c3Cl)c2cc1N1CCN(C(=O)CO)CC1	29 (≈ 15 µg/mL)

Second part, the molecule after the results:

solubility [µM]	SMILES
> 1000	CCOc1cc2ncc(C(N)=O)c(Nc3ccc(F)cc3F)c2cc1N1CCN(C(C)C)CC1
420 (≈ 217 µg/mL)	CCOc1cc2ncc(C(N)=O)c(Nc3cccc(Cl)c3Cl)c2cc1N1CCCN(C(C)C)CC1
200 (≈ 97.7 µg/mL)	CC(C)Oc1cc2ncc(C(N)=O)c(Nc3cccc(Cl)c3Cl)c2cc1N1CCN(C)CC1
54 (≈ 23.6 µg/mL)	CCOc1cc2ncc(C(N)=O)c(Nc3ccc(C)cc3F)c2cc1N1CCN(C)CC1
2 (≈ 0.885 µg/mL)	CCOc1cc2ncc(C(N)=O)c(Nc3ccc(F)cc3F)c2cc1N1CCC(O)CC1
790 (≈ 373 µg/mL)	CC(C)Oc1cc2ncc(C(N)=O)c(Nc3cccc(Cl)c3F)c2cc1N1CCN(C)CC1
64 (≈ 27.4 µg/mL)	CCOc1cc2ncc(C(N)=O)c(Nc3ccc(F)cc3F)c2cc1N1CCOCC1
320 (≈ 146 µg/mL)	CCOc1cc2ncc(C(N)=O)c(Nc3ccc(F)cc3F)c2cc1N1CCN(CC)CC1

System: Mus musculus
Assay: Inhibition of phosphorylated CSF1R level in 3T3/CSF1R mutant cells xenografted nude mouse at 25 mg/kg, po after 6 hrs by ELISA
Format: functional
Settings: not given

SMILES	inhibition in vivo at 25 mg/kg [%]
CCOc1cc2ncc(C(N)=O)c(Nc3ccc(F)cc3F)c2cc1N1CCN(C(C)C)CC1	50
CCOc1cc2ncc(C(N)=O)c(Nc3ccc(F)cc3F)c2cc1N1CCN(C2CC2)CC1	10
CCOc1cc2ncc(C(N)=O)c(Nc3cccc(Cl)c3Cl)c2cc1N1CCCN(C(C)C)CC1	75
CC(C)Oc1cc2ncc(C(N)=O)c(Nc3cccc(Cl)c3Cl)c2cc1N1CCN(C)CC1	35
COCCOc1cc2ncc(C(N)=O)c(Nc3cccc(Cl)c3F)c2cc1N1CCN(C)CC1	75
CCOc1cc2ncc(C(N)=O)c(Nc3ccc(C)cc3F)c2cc1N1CCN(C)CC1	60
